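Exposure lasted 48 hours, with cells grown in 96-well plates and compounds tested at five concentrations. Here, GI50 denotes the concentration required for 50% inhibition of growth. TGI marks complete inhibition of growth.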
Columns and labels:
Experiment in all cases: NCI anticancer screen, dose series, 48 h
CAKI-1 renal = test system: CAKI-1 renal
SF-295 CNS = test system: SF-295 CNS
PC-3 prostate = test system: PC-3 prostate
K-562 leukemia = test system: K-562 leukemia
A498 renal = test system: A498 renal
SW-620 colon = test system: SW-620 colon
HCC-2998 colon = test system: HCC-2998 colon
HT29 colon = test system: HT29 colon
OVCAR-3 ovarian = test system: OVCAR-3 ovarian
SN12C renal = test system: SN12C renal
MDA-MB-435 = test system: MDA-MB-435
DU-145 prostate = test system: DU-145 prostate
MCF7 breast = test system: MCF7 breast
SF-539 CNS = test system: SF-539 CNS
NCI-H23 lung = test system: NCI-H23 lung
UACC-257 melanoma = test system: UACC-257 melanoma
CCRF-CEM leukemia = test system: CCRF-CEM leukemia
HS 578T breast = test system: HS 578T breast
SK-MEL-28 melanoma = test system: SK-MEL-28 melanoma
NCI/ADR-RES ovarian = test system: NCI/ADR-RES ovarian
UACC-62 melanoma = test system: UACC-62 melanoma
NCI-H226 lung = test system: NCI-H226 lung
LOX IMVI melanoma = test system: LOX IMVI melanoma
BT-549 breast = test system: BT-549 breast
OVCAR-5 ovarian = test system: OVCAR-5 ovarian
U251 CNS = test system: U251 CNS
SNB-75 CNS = test system: SNB-75 CNS
TK-10 renal = test system: TK-10 renal
A549 NSCLC = test system: A549 NSCLC
HL-60(TB) leukemia = test system: HL-60(TB) leukemia
RPMI-8226 leukemia = test system: RPMI-8226 leukemia
MALME-3M melanoma = test system: MALME-3M melanoma
SK-MEL-2 melanoma = test system: SK-MEL-2 melanoma
KM12 colon = test system: KM12 colon
786-0 renal = test system: 786-0 renal
M14 melanoma = test system: M14 melanoma
OVCAR-4 ovarian = test system: OVCAR-4 ovarian
MOLT-4 leukemia = test system: MOLT-4 leukemia
EKVX NSCLC = test system: EKVX NSCLC
SR leukemia = test system: SR leukemia
COLO 205 colon = test system: COLO 205 colon
HCT-15 colon = test system: HCT-15 colon
ACHN renal = test system: ACHN renal
SNB-19 CNS = test system: SNB-19 CNS
HOP-92 NSCLC = test system: HOP-92 NSCLC
HOP-62 NSCLC = test system: HOP-62 NSCLC
RXF 393 renal = test system: RXF 393 renal
HCT-116 colon = test system: HCT-116 colon
MDA-MB-231 breast = test system: MDA-MB-231 breast
NCI-H522 lung = test system: NCI-H522 lung
SK-OV-3 ovarian = test system: SK-OV-3 ovarian
SK-MEL-5 melanoma = test system: SK-MEL-5 melanoma
OVCAR-8 ovarian = test system: OVCAR-8 ovarian
NCI-H460 lung = test system: NCI-H460 lung
SF-268 CNS = test system: SF-268 CNS
UO-31 renal = test system: UO-31 renal
T-47D breast = test system: T-47D breast
IGROV1 ovarian = test system: IGROV1 ovarian

`C[C@@H](Nc1c(C#N)cnc2ccc(-c3cnc(Cl)c(NS(C)(=O)=O)c3)cc12)c1ccccc1` gave a GI50 (CAKI-1 renal) of 0.241 µM, a TGI (CAKI-1 renal) of 3.98 µM and a GI50 (SF-295 CNS) of 0.252 µM. It also gave a TGI (SF-295 CNS) of 2.29 µM, a GI50 (PC-3 prostate) of 0.259 µM and a TGI (PC-3 prostate) of 7.97 µM. For the same compound, the GI50 (K-562 leukemia) was 0.264 µM, the TGI (K-562 leukemia) was over 100 µM and the GI50 (A498 renal) was 0.207 µM. The TGI (A498 renal) was 0.778 µM, the GI50 (SW-620 colon) was 0.343 µM and the TGI (SW-620 colon) was 12.1 µM. It also gave a GI50 (HCC-2998 colon) of 0.515 µM, a TGI (HCC-2998 colon) of 8.73 µM and a GI50 (HT29 colon) of 0.351 µM. The TGI (HT29 colon) was 12.9 µM, the GI50 (OVCAR-3 ovarian) was 0.26 µM and the TGI (OVCAR-3 ovarian) was 3.82 µM. The GI50 (SN12C renal) was 0.322 µM, the TGI (SN12C renal) was over 100 µM and the GI50 (MDA-MB-435) was 0.495 µM. The TGI (MDA-MB-435) was 11.4 µM, the GI50 (DU-145 prostate) was 0.38 µM and the TGI (DU-145 prostate) was 11.7 µM. For the same compound, the GI50 (MCF7 breast) was 0.0417 µM, the TGI (MCF7 breast) was 4.08 µM and the GI50 (SF-539 CNS) was 0.372 µM. The TGI (SF-539 CNS) was 4.08 µM, the GI50 (NCI-H23 lung) was 0.233 µM and the TGI (NCI-H23 lung) was 5.84 µM. It also gave a GI50 (UACC-257 melanoma) of 0.495 µM, a TGI (UACC-257 melanoma) of 7.05 µM and a GI50 (CCRF-CEM leukemia) of 0.178 µM. For the same compound, the TGI (CCRF-CEM leukemia) was over 21.4 µM, the GI50 (HS 578T breast) was 0.181 µM and the TGI (HS 578T breast) was 1.29 µM. It also gave a GI50 (SK-MEL-28 melanoma) of 0.346 µM, a TGI (SK-MEL-28 melanoma) of 11.2 µM and a GI50 (NCI/ADR-RES ovarian) of 1.61 µM. It also gave a TGI (NCI/ADR-RES ovarian) of 32.1 µM, a GI50 (UACC-62 melanoma) of 0.206 µM and a TGI (UACC-62 melanoma) of 2.03 µM. For the same compound, the GI50 (NCI-H226 lung) was 0.676 µM, the TGI (NCI-H226 lung) was 18.2 µM and the GI50 (LOX IMVI melanoma) was 0.275 µM. It also gave a TGI (LOX IMVI melanoma) of 1.68 µM, a GI50 (BT-549 breast) of 0.146 µM and a TGI (BT-549 breast) of 2.56 µM. For the same compound, the GI50 (OVCAR-5 ovarian) was 0.544 µM, the TGI (OVCAR-5 ovarian) was 19.2 µM and the GI50 (U251 CNS) was 0.335 µM. It also gave a TGI (U251 CNS) of 13.4 µM, a GI50 (SNB-75 CNS) of under 0.0353 µM and a TGI (SNB-75 CNS) of 0.701 µM. It also gave a GI50 (TK-10 renal) of 0.184 µM, a TGI (TK-10 renal) of 1.88 µM and a GI50 (A549 NSCLC) of 0.492 µM. For the same compound, the TGI (A549 NSCLC) was 6.47 µM, the GI50 (HL-60(TB) leukemia) was 0.222 µM and the TGI (HL-60(TB) leukemia) was 6.48 µM. It also gave a GI50 (RPMI-8226 leukemia) of 0.121 µM, a TGI (RPMI-8226 leukemia) of 0.582 µM and a GI50 (MALME-3M melanoma) of 0.166 µM. It also gave a TGI (MALME-3M melanoma) of 1.82 µM, a GI50 (SK-MEL-2 melanoma) of 0.249 µM and a TGI (SK-MEL-2 melanoma) of 1.59 µM. The GI50 (KM12 colon) was 0.493 µM, the TGI (KM12 colon) was 11.3 µM and the GI50 (786-0 renal) was 0.365 µM. It also gave a TGI (786-0 renal) of over 100 µM, a GI50 (M14 melanoma) of 0.442 µM and a TGI (M14 melanoma) of 12.5 µM. It also gave a GI50 (OVCAR-4 ovarian) of 0.45 µM, a TGI (OVCAR-4 ovarian) of 15.4 µM and a GI50 (MOLT-4 leukemia) of 0.144 µM. The TGI (MOLT-4 leukemia) was 1.81 µM, the GI50 (EKVX NSCLC) was 0.431 µM and the TGI (EKVX NSCLC) was 5.35 µM. For the same compound, the GI50 (SR leukemia) was 0.206 µM, the TGI (SR leukemia) was 6.19 µM and the GI50 (COLO 205 colon) was 0.34 µM. It also gave a TGI (COLO 205 colon) of 2.24 µM, a GI50 (HCT-15 colon) of 0.303 µM and a TGI (HCT-15 colon) of 11.5 µM. The GI50 (ACHN renal) was 0.54 µM, the TGI (ACHN renal) was 44.1 µM and the GI50 (SNB-19 CNS) was 0.5 µM. For the same compound, the TGI (SNB-19 CNS) was 12.1 µM, the GI50 (HOP-92 NSCLC) was 0.0515 µM and the TGI (HOP-92 NSCLC) was 0.636 µM. For the same compound, the GI50 (HOP-62 NSCLC) was 0.326 µM, the TGI (HOP-62 NSCLC) was 5.12 µM and the GI50 (RXF 393 renal) was 0.158 µM. The TGI (RXF 393 renal) was 0.877 µM, the GI50 (HCT-116 colon) was 0.124 µM and the TGI (HCT-116 colon) was 4.83 µM. It also gave a GI50 (MDA-MB-231 breast) of 0.594 µM, a TGI (MDA-MB-231 breast) of 16.6 µM and a GI50 (NCI-H522 lung) of 0.44 µM. For the same compound, the TGI (NCI-H522 lung) was 11.5 µM, the GI50 (SK-OV-3 ovarian) was 0.431 µM and the TGI (SK-OV-3 ovarian) was 3.18 µM. It also gave a GI50 (SK-MEL-5 melanoma) of 0.138 µM, a TGI (SK-MEL-5 melanoma) of 0.283 µM and a GI50 (OVCAR-8 ovarian) of 0.559 µM. For the same compound, the TGI (OVCAR-8 ovarian) was over 36.6 µM, the GI50 (NCI-H460 lung) was 0.357 µM and the TGI (NCI-H460 lung) was 12 µM. The GI50 (SF-268 CNS) was 0.275 µM, the TGI (SF-268 CNS) was 7.33 µM and the GI50 (UO-31 renal) was 0.256 µM. For the same compound, the TGI (UO-31 renal) was 9.3 µM, the GI50 (T-47D breast) was 0.112 µM and the TGI (T-47D breast) was 3.88 µM. It also gave a GI50 (IGROV1 ovarian) of 0.181 µM and a TGI (IGROV1 ovarian) of 1.01 µM.
